Measured values reported in the Deep4Chem optical property database.
Values belong to the compound of their own block, whether it stands above or below them.

Assay: photoluminescence quantum yield (fraction); solvent given as SMILES

photoluminescence quantum yield (in ClCCl): 0.03
SMILES: CC(=O)c1ccc(C#Cc2ccc(-c3cc(N(C)C)c4ccccc4c3)cc2)cc1

photoluminescence quantum yield (in CC#N): 0.97 | photoluminescence quantum yield (in CO): 0.1 | photoluminescence quantum yield (in CS(C)=O): 0.01 | photoluminescence quantum yield (in ClC(Cl)Cl): 0.65
SMILES: O=C1C=CC2=Cc3ccccc3B(O)N12

photoluminescence quantum yield (in CO): 0.54
SMILES: Cc1cc(C)c(B(c2cc(-c3ccc(C(C)(C)C)cc3)sc2-c2sc(-c3ccc(C(C)(C)C)cc3)cc2P(=O)(c2ccccc2)c2ccccc2)c2c(C)cc(C)cc2C)c(C)c1

photoluminescence quantum yield (in C1CCCCC1): 0.85 | photoluminescence quantum yield (in CC#N): 0.45 | photoluminescence quantum yield (in ClC(Cl)Cl): 0.68
SMILES: O=C1Cc2ccc(cc2)CC(=O)Cc2ccc(c3nsnc23)C1

photoluminescence quantum yield (in C1CCCCC1): 0.72 | photoluminescence quantum yield (in CC#N): 0.76
SMILES: CN(C)c1ccc(-c2nc3cccnc3[nH]2)cc1

SMILES: CC(C)(C)c1ccc2c(c1)c1cc(C(C)(C)C)ccc1n2-c1cc(N2c3ccccc3C(c3ccccc3)(c3ccccc3)c3ccccc32)cc(-n2c3ccc(C(C)(C)C)cc3c3cc(C(C)(C)C)ccc32)c1C#N
photoluminescence quantum yield (in Cc1ccccc1): 0.2

photoluminescence quantum yield (in ClCCl): 0.191
SMILES: CCOC(=O)c1ccc(C2CC(c3cccc4ccccc34)=NN2c2ccc(F)cc2)cc1 (stereo unspecified)

photoluminescence quantum yield (in ClCCl): 0.003
SMILES: CN(C)c1ccc(C2=CC3=C(c4ccc([N+](=O)[O-])cc4)[C@H]4c5ccccc5[C@]3(S2)c2ccccc24)cc1

photoluminescence quantum yield (in ClC(Cl)Cl): 0.38
SMILES: F[B-]1(F)n2c(cc3c2-c2ccccc2CC3)C(c2ccc(I)cc2)=C2C=C3CCc4ccccc4C3=[N+]21

photoluminescence quantum yield (in C1CCCCC1): 0.014 | photoluminescence quantum yield (in CC#N): 0.075 | photoluminescence quantum yield (in CN(C)C=O): 0.022 | photoluminescence quantum yield (in CO): 0.017 | photoluminescence quantum yield (in CS(C)=O): 0.024 | photoluminescence quantum yield (in c1ccccc1): 0.052
SMILES: COc1cc(/C=C/C(=O)CC(=O)/C=C/c2ccc(O)c(OC)c2)ccc1O

photoluminescence quantum yield (in CCO): 0.0001
SMILES: CC1(C)CC(/C=C/c2ccc(-n3cccn3)cc2)=CC(=C(C#N)C#N)C1

SMILES: Fc1c(F)c(-n2c3ccccc3c3ccccc32)c(F)c(F)c1/C=C/c1ccc(C(=C(c2ccccc2)c2ccccc2)c2ccccc2)cc1
photoluminescence quantum yield (in Cc1ccccc1): 0.003

photoluminescence quantum yield (in C1CCOC1): 0.2 | photoluminescence quantum yield (in CO): 0.16
SMILES: CCOC(=O)C1=CN(c2ccccc2)C=C(C(=O)OCC)C1

photoluminescence quantum yield (in CCCCCC): 0.42 | photoluminescence quantum yield (in CO): 0.5 | photoluminescence quantum yield (in ClCCl): 0.5
SMILES: C[Si](C)(C)c1ccc2ccc3c([Si](C)(C)C)ccc4ccc1c2c43

photoluminescence quantum yield (in C1CCOC1): 0.7 | photoluminescence quantum yield (in C1COCCO1): 0.75 | photoluminescence quantum yield (in CC#N): 0.65 | photoluminescence quantum yield (in CC(C)O): 0.57 | photoluminescence quantum yield (in CCO): 0.5 | photoluminescence quantum yield (in CCOC(C)=O): 0.75 | photoluminescence quantum yield (in CN(C)C=O): 0.68 | photoluminescence quantum yield (in CO): 0.38 | photoluminescence quantum yield (in CS(C)=O): 0.69 | photoluminescence quantum yield (in O): 0.56
SMILES: NS(=O)(=O)c1ccc(N2N=C(c3ccc(O)cc3)CC2c2ccc(Br)cc2)cc1 (stereo unspecified)

SMILES: CC(C)(C)c1ccc2c3c(c4ccc(C(C)(C)C)cc4c2c1)=[N+]1C(=C(c2ccccc2)c2c(Br)c4c5ccc(C(C)(C)C)cc5c5cc(C(C)(C)C)ccc5c4n2[B-]1(F)F)C=3Br
photoluminescence quantum yield (in C1CCCCC1): 0.03 | photoluminescence quantum yield (in C1CCOC1): 0.02 | photoluminescence quantum yield (in CC#N): 0.02 | photoluminescence quantum yield (in Cc1ccccc1): 0.03 | photoluminescence quantum yield (in ClCCl): 0.03

photoluminescence quantum yield (in CO): 0.57 | photoluminescence quantum yield (in O): 0.33
SMILES: CC1(C)C2=[N+](CCCCCC(=O)NCCNC(=O)CCCCCN3/C(=C/C=C/C=C/C=C/2)C(C)(C)c2cc(S(=O)(=O)[O-])ccc23)c2ccc(S(=O)(=O)[O-])cc21

SMILES: CCCCC(CC)CN1C(=O)c2cccc3c(C#Cc4ccc(N(c5ccccc5)c5ccc(C#Cc6ccc7c8c(cccc68)C(=O)N(CC(CC)CCCC)C7=O)cc5)cc4)ccc(c23)C1=O (stereo unspecified)
photoluminescence quantum yield (in C1CCCCC1): 0.93 | photoluminescence quantum yield (in C1CCOC1): 0.85 | photoluminescence quantum yield (in CC#N): 0.012 | photoluminescence quantum yield (in Cc1ccccc1): 0.94 | photoluminescence quantum yield (in ClC(Cl)Cl): 0.44

SMILES: COc1cc2c(cc1/C=C/C(=C(C#N)C#N)c1ccccc1)c1ccccc1n2C
photoluminescence quantum yield (in C1CCOC1): 0.008 | photoluminescence quantum yield (in CC#N): 0.014 | photoluminescence quantum yield (in CCO): 0.012 | photoluminescence quantum yield (in CCOC(C)=O): 0.009 | photoluminescence quantum yield (in CN(C)C=O): 0.022 | photoluminescence quantum yield (in CO): 0.012 | photoluminescence quantum yield (in CS(C)=O): 0.033 | photoluminescence quantum yield (in Cc1ccccc1): 0.007 | photoluminescence quantum yield (in ClC(Cl)Cl): 0.018 | photoluminescence quantum yield (in ClCCl): 0.022

SMILES: CCCCCCCCCCOc1ccc(C#Cc2ccc(C#Cc3ccc(OCCCCCCCCCC)c(OCCCCCCCCCC)c3)c3nc4c5ccccc5c5ccccc5c4nc23)cc1OCCCCCCCCCC
photoluminescence quantum yield (in C1CCOC1): 0.23 | photoluminescence quantum yield (in Cc1ccccc1): 0.24 | photoluminescence quantum yield (in ClCCl): 0.22

photoluminescence quantum yield (in CS(C)=O): 0.49
SMILES: Brc1ccc(-c2nc(-c3ccc(-c4nc(-c5ccc(Br)cc5)c(-c5ccc(Br)cc5)[nH]4)cc3)[nH]c2-c2ccc(Br)cc2)cc1

photoluminescence quantum yield (in ClCCl): 0.55
SMILES: C[Si]1(C)C(c2ccccc2)=Cc2ccccc21

photoluminescence quantum yield (in ClCCl): 0.45
SMILES: C[Si]1(C)c2ccccc2-c2cc3c(cc21)-c1ccccc1[Si]3(C)C

photoluminescence quantum yield (in ClC(Cl)Cl): 0.41
SMILES: CCOC(CN1C(=O)C2=C(c3cccs3)N(CC(OCC)OCC)C(=O)C2=C1c1cccs1)OCC

SMILES: c1ccc2c(c1)[nH]c1c3[nH]c4ccccc4c3c3nsnc3c21
photoluminescence quantum yield (in CN(C)C=O): 0.05 | photoluminescence quantum yield (in Cc1ccccc1): 0.07 | photoluminescence quantum yield (in ClCCl): 0.06

photoluminescence quantum yield (in CCCO): 0.002
SMILES: CCOC(=O)c1ccc2c(c1)[se]c1c3ccc(C(=O)OCC)cc3[se]c21

SMILES: c1ccc(-c2nc(-c3ccc(N4c5ccccc5C(c5ccccc5)(c5ccccc5)c5ccccc54)cc3)cc(-c3ccccn3)n2)cc1
photoluminescence quantum yield (in O=P(c1ccccc1)(c1ccccc1)c1ccccc1Oc1ccccc1P(=O)(c1ccccc1)c1ccccc1): 0.83

photoluminescence quantum yield (in CC#N): 0.57 | photoluminescence quantum yield (in CO): 0.3 | photoluminescence quantum yield (in CS(C)=O): 0.8 | photoluminescence quantum yield (in ClC(Cl)Cl): 0.61
SMILES: CCC1=C(C)C2=Cc3cc4c(cc3B(O)N2C1=O)OCO4

SMILES: O=[N+]([O-])c1ccc([N+]2=Cc3ccc4c5c(ccc4c3O[B-]2(c2c(F)c(F)c(F)c(F)c2F)c2c(F)c(F)c(F)c(F)c2F)C=[N+](c2ccc([N+](=O)[O-])cc2)[B-](c2c(F)c(F)c(F)c(F)c2F)(c2c(F)c(F)c(F)c(F)c2F)O5)cc1
photoluminescence quantum yield (in Cc1ccccc1): 0.83 | photoluminescence quantum yield (in ClCCl): 0.66

SMILES: CCNc1ccc2c(C(F)(F)F)cc(=O)oc2c1
photoluminescence quantum yield (in C1CCC2CCCCC2C1): 0.72 | photoluminescence quantum yield (in C1CCCCC1): 0.74 | photoluminescence quantum yield (in CC1CCCCC1): 0.77 | photoluminescence quantum yield (in CC#N): 0.56 | photoluminescence quantum yield (in CC(C)=O): 0.53 | photoluminescence quantum yield (in CC(C)O): 0.54 | photoluminescence quantum yield (in CCC(C)CC): 0.75 | photoluminescence quantum yield (in CCCC(C)C): 0.77 | photoluminescence quantum yield (in CCCCCC): 0.76 | photoluminescence quantum yield (in CCCCCCO): 0.54 | photoluminescence quantum yield (in CCCCO): 0.53 | photoluminescence quantum yield (in CCO): 0.47 | photoluminescence quantum yield (in CCOC(C)=O): 0.61 | photoluminescence quantum yield (in CO): 0.46

photoluminescence quantum yield (in ClCCl): 0.74
SMILES: O=C1c2ccccc2C2=Nc3ccc4ccccc4[n+]3[B-](F)(F)N12

SMILES: C(=C\c1ccc(N(c2ccc(/C=C/c3ccc(-c4cc(-c5ccccc5)nc(-c5ccccc5)c4)cc3)cc2)c2ccc(/C=C/c3ccc(-c4cc(-c5ccccc5)nc(-c5ccccc5)c4)cc3)cc2)cc1)/c1ccc(-c2cc(-c3ccccc3)nc(-c3ccccc3)c2)cc1
photoluminescence quantum yield (in C1CCOC1): 0.08 | photoluminescence quantum yield (in Cc1ccccc1): 0.14

photoluminescence quantum yield (in CC#N): 0.61 | photoluminescence quantum yield (in CO): 0.28 | photoluminescence quantum yield (in ClCCl): 0.78
SMILES: O=C1c2ccccc2-c2c(-c3cc(Cl)ccc3O)[nH]c(=O)n21

photoluminescence quantum yield (in ClCCl): 0.035
SMILES: c1ccc(-c2cc3cc4ccccc4cc3p2-c2ccccc2)cc1 (stereo unspecified)

SMILES: CC1(C)[C@@H]2CC[C@]1(C)c1nc3cc(-c4cccs4)ccc3nc12
photoluminescence quantum yield (in CC#N): 0.06 | photoluminescence quantum yield (in CCCCO): 0.35 | photoluminescence quantum yield (in CCO): 0.37 | photoluminescence quantum yield (in CCOC(C)=O): 0.02 | photoluminescence quantum yield (in CO): 0.52 | photoluminescence quantum yield (in Cc1ccccc1): 0.01 | photoluminescence quantum yield (in ClC(Cl)Cl): 0.11 | photoluminescence quantum yield (in ClCCl): 0.05

photoluminescence quantum yield (in CC1CCCCC1): 0.003 | photoluminescence quantum yield (in CC#N): 0.003 | photoluminescence quantum yield (in CO): 0.002
SMILES: COC(=O)C(NC(=O)OC(C)(C)C)c1ccc2oc(-c3ccc(OC(=O)c4ccccc4)cc3OC(=O)c3ccccc3)nc2c1 (stereo unspecified)

photoluminescence quantum yield (in ClCCl): 0.39
SMILES: c1ccc2c(c1)ccc1ccc3c(c12)-c1c(ccc2ccc4ccccc4c12)C3

photoluminescence quantum yield (in CO): 0.14
SMILES: CC1(C)C(/C=C/C2=C(Oc3ccc(CCN=C=S)cc3Br)C(=C/C=C3/N(CCCS(=O)(=O)[O-])c4ccccc4C3(C)C)/CCC2)=[N+](CCCS(=O)(=O)[O-])c2ccccc21

photoluminescence quantum yield (in C1COCCO1): 0.56 | photoluminescence quantum yield (in CC#N): 0.45 | photoluminescence quantum yield (in CCCCOCCCC): 0.46 | photoluminescence quantum yield (in CCOC(C)=O): 0.5
SMILES: CC(=O)Nc1ccc2c3cccc4cccc(c5cccc1c52)c43

photoluminescence quantum yield (in c1cc(-n2c3ccccc3c3ccccc32)cc(-n2c3ccccc3c3ccccc32)c1): 0.15
SMILES: O=C(c1ccccc1)c1cc2ccc1CCc1ccc(c(-c3ccc(N(c4ccccc4)c4ccccc4)cc3)c1)CC2

photoluminescence quantum yield (in C1COCCO1): 0.14 | photoluminescence quantum yield (in CC#N): 0.17 | photoluminescence quantum yield (in CC(C)O): 0.2 | photoluminescence quantum yield (in CCCCO): 0.2 | photoluminescence quantum yield (in CCO): 0.18 | photoluminescence quantum yield (in CCOC(C)=O): 0.14 | photoluminescence quantum yield (in CN(C)C=O): 0.14 | photoluminescence quantum yield (in CO): 0.16 | photoluminescence quantum yield (in CS(C)=O): 0.25
SMILES: O=S(=O)([O-])c1ccc(O)c2ccccc12

photoluminescence quantum yield (in ClC(Cl)Cl): 0.13
SMILES: N#CC1=CC(/C=C/c2ccccc2)=CC(C#N)=P1(c1ccccc1)c1ccccc1

photoluminescence quantum yield (in ClCCl): 0.123
SMILES: Cc1ccc(-c2c3nc(c(-c4ccc(C)cc4)c4ccc([nH]4)c(-c4ccc(OC(=O)C(C)c5ccccc5)cc4)c4nc(c(-c5ccc(C)cc5)c5ccc2[nH]5)C=C4)C=C3)cc1 (stereo unspecified)

photoluminescence quantum yield (in ClCCl): 0.04
SMILES: O=C1c2ccccc2-c2nc3ccccc3n21

SMILES: COc1cc(/C=C/c2ccccn2)c(OC)cc1C=O
photoluminescence quantum yield (in C1CCOC1): 0.19 | photoluminescence quantum yield (in CC#N): 0.24 | photoluminescence quantum yield (in CN(C)C=O): 0.21 | photoluminescence quantum yield (in Cc1ccccc1): 0.16 | photoluminescence quantum yield (in ClCCl): 0.36

SMILES: Cc1ccc(N2C(c3ccccc3[N-]S(=O)(=O)c3ccc(C)cc3)=[NH+]C(c3ccccc3)C2c2ccccc2)cc1 (stereo unspecified)
photoluminescence quantum yield (in Cc1ccccc1): 0.396

photoluminescence quantum yield (in CCO): 0.11
SMILES: CC1(C)C(/C=C/C2=C(Cl)C(=C/C=C3/N(Cc4ccc(C(=O)O)cc4)c4ccccc4C3(C)C)/CCC2)=[N+](Cc2ccc(C(=O)O)cc2)c2ccccc21
